“And” between values parts separate entries of the source, which are not always exact repeats. Equal values may be shown once.
Key:
[1] = Short-term and freeze/thaw stability in human serum; type: physicochemical; details: for Mean concentration at stability time point / Measured Concentration (replicates): Donors 1-3; for Measured Concentration (replicates): human serum
Description: Serum samples were collected into red top tubes and frozen immediately. Specimens were stored according to the following conditions: • Short Term Storage • Serum Frozen (≤−10° C. and ≤−55° C.): 7 days • Serum Refrigerated (2-8° C.): Strictly frozen storage.
Short-term and freeze/thaw stability. Sample stability was confirmed by testing human serum from three individual donors that was stored at each of the different conditions likely to be encountered in sample handling and laboratory analysis. […] An additional set of the freshly collected serum underwent up to 6 freeze/thaw cycles prior to stability testing. All serum stability samples and baseline stored samples were tested with freshly prepared calibrators. All testing was performed in triplicate.

[2] = Autosampler stability, serum assay; type: physicochemical; details: human serum assay, stored refrigerated for up to 3 days and 22 hours
Description: Autosampler stability. […] To validate autosampler stability a batch containing two sets of calibrators and QCs was processed as normal. After completion of assay processing the first set of calibrators and QCs was injected and analyzed. After analysis the assay batch was stored refrigerated in the autosampler prior to reinjection of the first set of samples and first time injection of the second set of calibrators and QCs. The 96-well plates containing the processed assay were stored refrigerated in the autosampler for approximately 3 days, 22 hours, and 16 minutes before injection was completed for all samples. Post-storage recoveries were based on target concentrations for the stored, first time injection samples. Reinjected samples were compared to initial injection results to determine recoveries. Autosampler study results met acceptance criteria. Assay batches stored refrigerated for up to 3 days and 22 hours are stable and suitable for first time injection or re-injection to determine Prostaglandin D2 concentrations in human serum.

[3] = Short-term and freeze/thaw stability of PGD2 in urine; type: physicochemical, human
Description: Urine samples were collected into plastic containers. Specimens were stored according to the following conditions: • Short Term Storage • Urine Frozen (≤−10° C. and ≤−55° C.): 8 days • Urine Refrigerated (2-8° C.): 3 days • Urine Room Temperature (15-30° C.): 3 days • Urine Freeze/Thaw (≤−10° C.): 6 Cycles • Long Term Storage • Urine Frozen (≤−10° C.): Stability testing in process • Shipping Conditions: • Urine Frozen (≤−10° C.):—on dry ice PGD2 was stable for at least 3 days at 4° C. and at room temperature and 8 days frozen (≤−10° C. or ≤−55° C.). PGD2 was stable for at least 6 freeze-thaw cycles (≤−10° C. or ≤−55° C.). [table]

[4] = Calibrator freeze/thaw stability; type: physicochemical; details: for replicates within 85-115% of the target: calibrator matrix
Description: Calibrator freeze/thaw stability. Calibrator freeze/thaw stability was examined by analyzing using an accuracy sample made in calibrator amatrix (A4 at 250 pg/mL). The accuracy sample underwent up to 6 freeze/thaw cycles prior to stability testing. Freeze/thaw cycles were performed as per Example 3. Times and temperatures were recorded on the incubation study stability forms. All testing was performed in triplicate. The target concentration for the accuracy sample was used to define acceptable ranges for measured concentrations after freeze/thaw cycles. For the first five freeze/thaw cycles, 100% of replicates were within 85-115% of the target (TABLE 15). For the sixth freeze/thaw cycle >60% of replicates were within 85-115% of the target (TABLE 15). […] Prostaglandin D2 is stable in calibrator matrix after 5 freeze/thaw cycles (6 total thaws).

human ovarian tumor cell = details: read-out: IC50, inhibition of human ovarian tumor cell proliferation; cited from earlier work
[5] = Autosampler stability, urine assay; type: physicochemical; details: human urine assay, stored refrigerated for up to 3 days and 8 hours
Description: Autosampler stability. […] To validate autosampler stability a batch containing two sets of calibrators and QCs was processed as normal. After completion of assay processing the first set of calibrators, QCs, and normal urines was injected and analyzed. After analysis the assay batch was stored refrigerated in the autosampler prior to reinjection of the first set of samples and first time injection of the second set of calibrators and QCs. The 96-well plates containing the processed assay were stored refrigerated in the autosampler for approximately 3 days, 8 hours, and 36 minutes before injection was completed for all samples. Post-storage recoveries were based on target concentrations for the stored, first time injection samples. Reinjected samples were compared to initial injection results to determine recoveries. Autosampler study results met acceptance criteria. […] Assay batches stored refrigerated for up to 3 days and 8 hours were stable and suitable for first time injection or re-injection to determine Prostaglandin D2 concentrations in human urine.

[6] = Freeze/Thaw (<−10° C.), 1 Cycle (2 Thaws)
[7] = Freeze/Thaw (<−10° C.), 2 Cycles (3 Thaws)
[8] = Refrigerated (2-8° C.), 3.5 Hours

CCCCC[C@H](O)/C=C/[C@H]1C(=O)C[C@H](O)[C@@H]1C/C=C\CCCC(=O)O [PGD2, prostaglandin D2]
% of replicates within 85-115% of mean at baseline [1, 6]: 100.00% | % of replicates within 85-115% of mean at baseline [1, 7]: 77.78% | % of replicates within 85-115% of mean at baseline ([1]; Freeze/Thaw (<−10° C.), 3 Cycles (4 Thaws)): 0.00% | % of replicates within 85-115% of mean at baseline ([1]; Freeze/Thaw (<−10° C.), 6 Cycles (7 Thaws)): 0.00% | % of replicates within 85-115% of mean at baseline ([1]; Frozen (<−55° C.), 7 Days): 100.00% | % of replicates within 85-115% of mean at baseline ([1]; Frozen (≤−10° C.), 7 Days): 100.00% | % of replicates within 85-115% of mean at baseline ([1]; Refrigerated (2-8° C.), 1 Day): 0.00% | % of replicates within 85-115% of mean at baseline ([1]; Refrigerated (2-8° C.), 3 Days): 0.00% | Mean concentration at stability time point ([1]; Refrigerated (2-8° C.), 3 Days): 3.83 pg/mL and 4.93 pg/mL and 3.33 pg/mL | % of replicates within 85-115% of mean at baseline [1, 8]: 88.89% | % of replicates within 85-115% of mean at baseline ([1]; Refrigerated (2-8° C.), 7 Hours): 0.00% | % of replicates within 85-115% of mean at baseline ([1]; Room Temp (15-30° C.), 1 Day): 0.00% | Mean concentration at stability time point ([1]; Room Temp (15-30° C.), 1 Day): 6.95 pg/mL and 4.42 pg/mL and 4.22 pg/mL | % of replicates within 85-115% of mean at baseline ([1]; Room Temp (15-30° C.), 3 Days): 0.00% | Mean concentration at stability time point ([1]; Room Temp (15-30° C.), 3 Days): 9.17 pg/mL and 6.27 pg/mL and 5.78 pg/mL | % of replicates within 85-115% of mean at baseline ([1]; Room Temp (15-30° C.), 3.5 Hours): 0.00% | % of replicates within 85-115% of mean at baseline ([1]; Room Temp (15-30° C.), 7 Hours): 0.00% | Short-term and freeze/thaw stability study result ([1]; frozen and refrigerated serum): did meet acceptance criteria | Measured Concentration (replicates) [1, 6]: 23.2 pg/mL and 95.8 pg/mL and 52.9 pg/mL and 21.1 pg/mL and 107 pg/mL (2×) and 52.4 pg/mL and 23.4 pg/mL and 60.5 pg/mL | Measured Concentration (replicates) [1, 7]: 22.1 pg/mL and 93.3 pg/mL and 19.4 pg/mL and 51.4 pg/mL and 19.7 pg/mL and 92.0 pg/mL and 51.2 pg/mL | Measured Concentration (replicates) ([1]; Frozen (<−55° C.), 7 Days): 24.5 pg/mL (3×) and 119 pg/mL and 65.7 pg/mL and 121 pg/mL and 66.8 pg/mL and 122 pg/mL and 67.9 pg/mL | Measured Concentration (replicates) ([1]; Frozen (≤−10° C.), 7 Days): 23.3 pg/mL (2×) and 101 pg/mL and 53.8 pg/mL and 113 pg/mL (2×) and 57.9 pg/mL and 24.2 pg/mL and 62.3 pg/mL | Measured Concentration (replicates) [1, 8]: 103 pg/mL and 57.9 pg/mL and 20.9 pg/mL and 107 pg/mL and 57.6 pg/mL and 19.9 pg/mL and 93.5 pg/mL and 54.7 pg/mL | Measured Concentration (replicates) ([1]; day of collection, time 0): 21.9 pg/mL and 104 pg/mL and 60.4 pg/mL and 22.0 pg/mL and 107 pg/mL and 59.1 pg/mL and 24.7 pg/mL and 111 pg/mL and 55.6 pg/mL | Short-term stability study result ([1]; serum stored at room temperature): did not meet acceptance criteria | Autosampler stability of processed assay batches [2]: stable | stable for at least (time) ([3]; 4° C.): at least 3 days | stable for at least (time) ([3]; frozen (≤−10° C. or ≤−55° C.)): ≥ 8 days | stable for at least (time) ([3]; room temperature): at least 3 days | stable for at least (freeze-thaw cycles) ([3]; ≤−10° C. or ≤−55° C.): at least 6 freeze-thaw cycles | stable in calibrator matrix after (freeze/thaw cycles) ([4]; accuracy sample A4 at 250 pg/mL): 5 freeze/thaw cycles | replicates within 85-115% of the target ([4]; first five freeze/thaw cycles): 100% | replicates within 85-115% of the target ([4]; sixth freeze/thaw cycle): > 60% | IC50 (human ovarian tumor cell): 6.8 µM | Autosampler stability of processed assay batches [5]: stable

Source: US12025619B2, “Methods and systems for detecting prostaglandins by LC-MS/MS” (Laboratory Corporation of America Holdings, priority 2020, dated 2024)
